Laboratory results reported in article PMC7287670, “Tyrosinase Inhibition and Kinetic Details of Puerol A Having But-2-Enolide Structure from Amorpha fruticosa” (Molecules, 2020).
Read-outs that look alike come from different tables or passages of the source.

Assays:
[1] = molecular target: T1, Mushroom tyrosinase (diphenolase) (Agaricus bisporus, UniProt C7FF04); test: Mushroom tyrosinase diphenolase inhibition (L-DOPA as substrate, 475 nm); type: biochemical; details: for IC50: substrate L-DOPA
T1 construct: purchased Sigma-Aldrich Co., St. Louis, MO, USA
T1 sequence (C7FF04 1-392): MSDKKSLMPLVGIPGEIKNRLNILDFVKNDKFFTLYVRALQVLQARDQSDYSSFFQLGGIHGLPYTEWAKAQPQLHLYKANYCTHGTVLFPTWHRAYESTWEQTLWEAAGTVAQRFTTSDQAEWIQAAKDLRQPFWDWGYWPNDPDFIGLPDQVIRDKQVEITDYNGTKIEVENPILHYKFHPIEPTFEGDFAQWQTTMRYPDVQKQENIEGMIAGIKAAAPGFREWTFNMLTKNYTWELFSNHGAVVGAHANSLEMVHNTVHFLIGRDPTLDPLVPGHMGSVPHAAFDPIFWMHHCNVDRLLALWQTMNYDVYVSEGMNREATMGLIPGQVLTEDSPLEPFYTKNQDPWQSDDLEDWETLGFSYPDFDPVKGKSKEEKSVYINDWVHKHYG
Description: (§1) Mushroom tyrosinase (EC 1. 14. 18. 1) (Sigma-Aldrich Co., St. Louis, MO, USA) activity was performed in accordance with the previously described method with subtle modification, using L-tyrosine and L-3,4-dihydroxylphenylalanine (L-DOPA) for monophenolase and diphenolase as substrates, respectively. Two hundred sixty units/mL of the tyrosinase stock solution was prepared at optimum pH 6.8 (0.05 M phosphate buffer). The inhibitors were initially dissolved in DMSO and diluted to several concentrations. […] Then, 10 μL of the enzyme was added to the mixture. Subsequent absorbance of DOPA chrome formation was recorded at 475 nm by means of an UV-Vis spectrophotometer (SpectraMax M3, Molecular Devices, San Jose, CA, USA) in a 96-well microplate at 30 °C. Three separate determinations were conducted for each assay.
(§2) The characteristic of tyrosinase inhibition was represented by Lineweaver−Burk double-reciprocal-plot and Dixon plot at specified concentrations of the substrates and inhibitors, respectively.

tyrosinase [2] = molecular target: T2, tyrosinase (Agaricus bisporus, UniProt C7FF04); test: Fluorescence quenching measurement of binding affinity to tyrosinase
T2 construct: purchased Sigma-Aldrich Co., St. Louis, MO, USA
T2 sequence (C7FF04 1-392): as above
Description: To measure fluorescence from the tyrosinase enzyme, 10 μL of 260 unit/mL enzyme solution with 165 μL of phosphate buffer (0.05 M) were added into 96-well black immunoplates. Afterward, 5 μL of various concentrations (2.5–20 μM) of inhibitor was added into each well. All fluorescence spectra were obtained by a SpectraMax M3 spectrophotometer (Molecular Devices, San Jose, CA, USA). The spectra were measured from 300 to 400 nm with emission slits regulated to 2.0 nm, and the excitation wavelength was 265 nm. The Stern–Volmer quenching constant (KSV) was estimated using Equation (6). All experiments were carried out in triplicate, and the mean values were calculated. (6) […] where F0 and F are the fluorescence intensities in the absence and presence of quencher (Q). KSV is the Stern–Volmer quenching constant [L M^−1]. For static quenching, the correlation between the fluorescence intensity and the concentration of the quencher for the series of reactions can be expressed by Equation (7). (7) log[(F0 − F)/F]=logKA+nlog[Q]f
F0 and F are the fluorescence intensities in the absence and presence of inhibitor; KA is the binding constant; n is the number of binding sites of the enzyme; Qf is the concentration of inhibitor [24].

[3] = system: B16F10 mouse melanoma cells; test: L-DOPA oxidation (cellular tyrosinase) in α-MSH-treated B16F10 melanoma cells; type: cell-based; details: B16 cells, 48 h in the presence of α-MSH
Description: (§3) The B16F10 mouse melanoma cell (American Type of Culture Collection, VA, USA) were cultured as previously reported. Briefly, the cells were incubated in DMEM containing 10% fetal bovine serum and 1% penicillin/streptomycin (Sigma–Aldrich, St. Louis, MO, USA) at 37 °C in a 5% CO2 humidified incubator.
B16F10 mouse melanoma cells were seeded on to 6-well plates at a density of 1 × 10^5 cells per well and cultured for 24 h. Then, the cells were treated with α-MSH (1 μM) in the presence or absence of different concentrations of compound 1, followed by incubation for 48 h. The incubated cells were collected and dissolved with 1% Triton X-100 solution for 1 h on ice. Then, the cells were cultured for 4 h with 100 μL (2 mg/mL) L-DOPA in a 5% CO2 humidifying incubator at 37 °C condition. After that, by using a microplate reader (Bio-Rad), absorbance at 490 nm was measured.

[4] = system: B16F10 mouse melanoma cells; test: Melanin content in α-MSH-stimulated B16F10 melanoma cells; type: cell-based; details: B16 cells, 48 h in the presence of α-MSH, read-out: Melanin Synthesis IC50
Description: as §3
For the analysis of melanin content accumulated in the cytosol, B16F10 mouse melanoma cells were seeded on to six-well plates at a density of 1 × 10^5 cells per well, and cultured for 24 h. Then, the cells were treated with 1 μM of α-MSH (Sigma–Aldrich, St. Louis, MO, USA) in the presence or absence of different concentrations of compound 1. Thereafter, the cells were collected using trypsin-EDTA (Lonza, Walkersville, MD, USA) and dissolved in 1 N NaOH, including 10% DMSO at 65 °C for 24 h. The melanin content was determined at 415 nm by a Bio-Rad microplate reader.

[5] = molecular target: T3, Mushroom tyrosinase (monophenolase) (Agaricus bisporus, UniProt C7FF04); test: Mushroom tyrosinase monophenolase inhibition (L-tyrosine as substrate, 475 nm); type: biochemical; details: for L-Tyrosine Inhibition Mode: Lineweaver–Burk plot; for IC50: substrate L-tyrosine
T3 construct: purchased Sigma-Aldrich Co., St. Louis, MO, USA
T3 sequence (C7FF04 1-392): as above
Description: as §1, §2

tyrosinase [6] = molecular target: T2, tyrosinase; test: HPLC analysis of tyrosinase inhibition with N-acetyl-L-tyrosine as substrate; type: biochemical; details: HPLC at 275 nm
Description: The HPLC analysis of tyrosinase inhibition was carried out by giving minor alterations in the previous procedure with N-acetyl-L-tyrosine as a substrate. The 4.5 mM of the substrate was prepared in the 50 mM phosphate buffer (pH 6.8). Then, 670 units/mL tyrosinase (Sigma-Aldrich Co., St. Louis, MO, USA) solution and several concentrations of the inhibitor solution were arranged. The N-acetyl-L-tyrosine was observed on 275 nm with 4.6 min of tR by eluting the mobile phase consisting of A (H2O) and B (acetonitrile, ACN), with the following isocratic condition: 0–8 min and A/B = 90:10 (v/v). After 20 μL of the sample solution was subjected to the HPLC (Pack ODS-AQ C18 column, YMC) system, the reactions were measured every 15 min. All procedures were carried out at room temperature.

[7] = system: B16F10 mouse melanoma cells; test: Cell viability assay (MTT) in B16F10 melanoma cells; type: cell-based; details: B16 cells, 48 h
Description: as §3
The cell viability assay of the B16F10 mouse melanoma cells were conducted with subtle variation in previous methods. The cells were incubated in 96-well plates overnight. […] After incubation, 5 μg/mL of MTT solution was added to the each well and the cells were incubated for 3 h. After the medium was removed, the cells were treated with dimethyl sulfoxide (DMSO) and cultured at room temperature for 20 min. The absorbance at 595 nm was measured on a Bio-Rad microplate reader (Hercules, CA, USA).

[8] = molecular target: T4, tyrosinase (monophenolase) (Agaricus bisporus, UniProt C7FF04); test: Time-dependent assays and progress curves (slow-binding kinetics, lag phase); type: biochemical, mushroom; details: for Type of inhibitor (time-dependent inhibition): L-tyrosine, preincubation and progress curves
T4 construct: purchased Sigma-Aldrich Co., St. Louis, MO, USA
T4 sequence (C7FF04 1-392): as above
Description: The assays were carried out using tyrosinase (260 units) and L-tyrosine as a substrate of monophenolase in 0.25 M phosphate buffer (pH 6.8) at 30 °C. The enzyme activity was recorded sequentially for 30 min by a UV spectrophotometer. To evaluate the time-dependent inhibition and the kinetic parameters of tyrosinase, progress curves with 30 s intervals were measured at different concentrations of the inhibitor and substrate. The data were through the use of Sigma Plot (SPCC Inc., Chicago, IL, USA) as a nonlinear regression program to provide the respective parameters for each curve; A (absorbance at 475 nm), vi (initial rate), vss (steady-state rate), kobs (apparent first-order rate constant for the transition from vi to vss), and Kiapp (apparent Ki) in accordance with the following Equations (2)–(5). (2) A=vsst+vi − vss1 −exp−kobst/kobs (3) v/v0=exp (−kobst) (4) kobs=k4 (1+[I]/Kiapp) (5) Kiapp=k4/k3
The value of −kobs was estimated by a slope of the straight line from the plot of the natural log of the residual enzyme activity vs. the preincubation time. The plot of kobs vs. the concentration of inhibitors gave the values of k3, k4, and Kiapp on the basis of Morrison and Walsh’s method.

[9] = pH 6.8, 30 °C, read-out: L-DOPA IC50 Value (diphenolase)
[10] = pH 6.8, 30 °C, read-out: L-Tyrosine IC50 Value (monophenolase)
[11] = slow-binding, L-tyrosine as substrate

Q: How did the Ki ([1]; diphenolase, Dixon plot) turn out when `O=C1C=C(c2ccc(O)cc2O)C(Cc2ccc(O)cc2)O1` (stereo not shown) [Compound 1, Puerol A] was run?
A: The Ki was 1.95 µM.

Q: What about the “L-DOPA Inhibition Mode” value ([1]; diphenolase, Lineweaver–Burk plot) of the same molecule?
A: The value was “competitive inhibition mode”.

Q: And the IC50 [1, 9]?
A: The IC50 was 3.88 ± 0.3 µM.

Q: What about the “n (number of binding sites)” value (tyrosinase [2]; from log[(F0 − F)/F] plot) of the same molecule?
A: The value was “one”.

Q: And the “KSV (Stern–Volmer quenching constant)” value (tyrosinase [2]; inhibitor 2.5–20 μM, excitation 265 nm, emission 300–400 nm)?
A: Its value is 145000 L/mol.

Q: What about the IC50 [3] of the same molecule?
A: Its IC50 is 23.9 ± 1.4 µM.

Q: And the IC50 [4]?
A: Its IC50 is 11.4 ± 1.2 µM.

Q: What about the Reversibility of inhibition ([5]; initial velocity vs tyrosinase and inhibitor concentrations) of the same molecule?
A: Its Reversibility of inhibition is “reversible inhibitor”.

Q: What about the Ki ([5]; monophenolase, Dixon plot) of the same molecule?
A: The Ki was 0.87 µM.

Q: What about the “L-Tyrosine Inhibition Mode” value ([5]; monophenolase) of the same molecule?
A: The value was “Competitive”.

Q: And the “L-Tyrosine Inhibition Mode” value ([5]; monophenolase, listed as puerol A)?
A: The value was “competitively”.

Q: What about the IC50 [5, 10] of the same molecule?
A: The IC50 was 2.2 ± 0.2 µM.

Q: And the “oxidation of N-acetyl-L-tyrosine blocked” value (tyrosinase [6]; 5 μM)?
A: Its value is 56%.

Q: And the “oxidation of N-acetyl-L-tyrosine blocked” value (tyrosinase [6]; 10 μM)?
A: Its value is 86%.

Q: What about the “oxidation of N-acetyl-L-tyrosine blocked” value (tyrosinase [6]; 20 μM, listed as Puerol A) of the same molecule?
A: Its value is “completely inhibited”.

Q: What about the “oxidation of N-acetyl-L-tyrosine blocked” value (tyrosinase [6]; 20 μM, listed as puerol A) of the same molecule?
A: Its value is 95%.

Q: And the “Cytotoxicity LD50” value [7]?
A: Its value is 137.8 ± 1.2 µM.

Q: And the Ki ([8]; Kiapp = k4/k3)?
A: The Ki was 0.107 µM.

Q: What about the “Type of inhibitor (time-dependent inhibition)” value (shortened to “Type of inhibitor”) [8] of the same molecule?
A: The value was “simple, reversible, slow-binding inhibitor”.

Q: What about the “Type of inhibitor” value ([8]; listed as Puerol A) of the same molecule?
A: Its value is “reversible, competitive, simple slow-binding inhibitor”.

Q: And the “Type of inhibitor” value ([8]; listed as puerol A)?
A: The value was “competitive inhibitor and reversible, simple slow-binding inhibitor”.

Q: What about the “lag phase of L-tyrosine oxidation” value ([8]; inhibitor 0.5–8.0 μM, 60 s without inhibitor) of the same molecule?
A: Its value is “up to 600 s”.

Q: And the k3 [8, 11]?
A: The k3 was 465 M⁻¹ s⁻¹.

Q: And the k4 [8, 11]?
A: The k4 was 0.003 min⁻¹.

Q: Which results are given for `O=C1C=C(c2ccc(O)cc2O[C@@H]2O[C@H](CO)[C@@H](O)[C@H](O)[C@H]2O)C(Cc2ccc(O)cc2)O1` (stereo partly shown) [Compound 2, Kuzubutenolide A]?
A: IC50 [1, 9]: > 200 µM; IC50 ([1]; read-out: IC50 diphenolase): 1900 µM; IC50 [5, 10]: > 200 µM; IC50 ([5]; read-out: IC50 monophenolase): 1500 µM

Q: Which IC50 [3] does the source give for `O=c1cc(CO)occ1O` [Kojic acid, reference compound] here?
A: The IC50 was > 500 µM.

Q: And the IC50 [4]?
A: Its IC50 is > 500 µM.

Q: And the “Cytotoxicity LD50” value [7]?
A: Its value is >500 µM.
